According to US20160016958A1, “Method of Labeling Flumazenil with F-18 and Separating and Purifying F-18-Flumazenil” (Institute of Nuclear Energy Research, Atomic Energy …, priority 2014, published 2016):

Assay: lipophilicity test, octanol/PBS partition with gamma counter
Type: physicochemical

With CCOC(=O)c1ncn2c1CN(C)C(=O)c1cc([18F])ccc1-2 [F-18-flumazenil] the “log P value” was 1.49±0.12.
